Measured values from patent US12419890B2, “Administration of sumo-activating enzyme inhibitor and checkpoint inhibitors” (Takeda Pharmaceutical Company Limited, priority 2019, dated 2025).

System: MC38 syngeneic mouse colon adenocarcinoma-derived subcutaneous tumor
Assay: MC38 Study 8: mouse MC38 syngeneic tumor model, individual tumor volume
Assay type: in vivo
Conditions: BIWx3 till Day 17
Procedure: MC38 Study 8: MC38 is a mouse colon adenocarcinoma cell line. MC38 mouse syngeneic tumor model was generated by subcutaneous inoculation with 1.0×10^6 MC38 cells (cell suspension) in 11 weeks old female C57BL/6 mice (SINO-British SIPPR/BK Lab Animal Ltd., Shanghai, China) in the flank. When the mean tumor volume reached approximately 60 mm^3, the animals were randomized into one vehicle control and five treatment groups (n=8/group). Mice were then dosed with 20% HPbCD or Compound I-263a or anti-mouse PD-1 antibody over a 21-day period. Tumor growth and body weight were measured twice per week during the treatment and post-treatment periods, and mice were humanely euthanized once they had reached their humane endpoint.
Study 8: A 0.75 mg/mL stock solution of Compound I-263a was formulated weekly in 20% HPβCD and administered intravenously (IV) based on exact animal body weight on each day of treatment, using a dosing volume of 10 mL/kg body weight. Final doses received were 7.5 mg/kg. Dosing volume for Compound I-263a was 0.2 mL. […]
Tumors were measured twice weekly using vernier calipers. Tumor volumes were calculated using standard equation: V=W^2×L/2, where V=volume, W=width, and L=length for the tumor. […] Tumor size and body weight were measured twice a week for the duration of the study. […]

Cc1sc(C(=O)c2cncnc2N[C@@H]2C[C@H](COS(N)(=O)=O)[C@@H](O)C2)cc1[C@@H]1NCCc2ccc(Cl)cc21 [Compound I-263a, [(1R,2S,4R)-4-{[5-({4-[(1R)-7-chloro-1,2,3,4-tetrahydroisoquinolin-1-yl]-5-methyl-2-thienyl}carbonyl)pyrimidin-4-yl]amino}-2-hydroxycyclopentyl]methyl sulfamate] was tested, and the “tumors with tumor growth delay” value (delay day 11-14, Compound I-263a 7.5 mg/kg IV or anti-mPD-1 10 mg/kg IP) was 1 and the “tumors with tumor growth delay” value (delay from day 7-18, 8 implanted tumors, Compound I-263a 7.5 mg/kg IV alone or plus anti-mPD-1 10 mg/kg IP) was 2.
